Measurements from patent US5424292A (Depha Team s.r.l., priority 1990, dated 1995).

Assays:
[1] = male Fischer rats, doses equivalent to 60 mg/kg of 5-ASA via metal probe into stomach; for Recovery percentages of 5-ASA + N-acetyl-5-ASA in feces by HPLC: feces withdrawn at 2 hour intervals for 48 hours; for Recovery percentages of 5-ASA + N-acetyl-5-ASA in urine by HPLC: urine withdrawn at 2 hour intervals for 48 hours
Experimental: Particularly, male Fischer rats weighing about 200-250 g were used.
The rats were then placed in metabolic cages, from which feces and urine were withdrawn at 2 hour intervals for 48 hours.

[2] = cited from earlier work

Compound | Recovery percentages of 5-ASA + N-acetyl-5-ASA in feces by HPLC [1] | Recovery percentages of 5-ASA + N-acetyl-5-ASA in urine by HPLC [1] | Stability at the gastric pH [2]
N[C@@H](CCC(=O)O)C(=O)Nc1ccc(O)c(C(=O)O)c1 [Compound 2, (N-L-glutamyl)-amino-2-salicylic acid] | 45 ± 4% | 34 ± 4% | –
Nc1ccc(O)c(C(=O)O)c1 [Compound 5-ASA, 5-aminosalicylic acid] | 05 ± 3% | 79 ± 3% | not stable at the gastric pH
